Here are results for 5 compounds from patent publication US12723063B2, “GIPR-agonist compounds” (Eli Lilly and Company, priority 2019, dated 2026).

A word on the Ki: it is the equilibrium dissociation constant of an inhibitor or competing ligand from its target. What is called CL/F is the apparent clearance, not corrected for the fraction that reaches the circulation. By Tmax is commonly meant the time from dosing to the highest level. The half-life is the time needed for the level to fall by half in the phase considered. Low readings indicate fast loss, high ones slow loss.

For data set [1], the target named is T1, human GcgR (Homo sapiens, UniProt P47871).
T1 construct: expressed in transfected cells; crude membranes
The experiment in a line: [125I]-Glucagon binding, SPA with WGA beads, 0.1% bacitracin. Particulars: geometric mean, read-out: hGcgR Ki. The method in brief:
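SPA competition binding with WGA beads on crude membranes from HEK293 cells stably expressing hGcgR. Buffer: 25 mM HEPES pH 7.4, 2.5 mM CaCl2, 1 mM MgCl2, 0.1% bacitracin, 0.003% Tween-20; 10-point 3-fold dilutions, NSB with 1 μM Gcg.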

For data set [2], the target named is T2, human GIPR (Homo sapiens, UniProt P48546).
T2 construct: expressed in transfected cells; crude membranes
T2 sequence (P48546 22-466): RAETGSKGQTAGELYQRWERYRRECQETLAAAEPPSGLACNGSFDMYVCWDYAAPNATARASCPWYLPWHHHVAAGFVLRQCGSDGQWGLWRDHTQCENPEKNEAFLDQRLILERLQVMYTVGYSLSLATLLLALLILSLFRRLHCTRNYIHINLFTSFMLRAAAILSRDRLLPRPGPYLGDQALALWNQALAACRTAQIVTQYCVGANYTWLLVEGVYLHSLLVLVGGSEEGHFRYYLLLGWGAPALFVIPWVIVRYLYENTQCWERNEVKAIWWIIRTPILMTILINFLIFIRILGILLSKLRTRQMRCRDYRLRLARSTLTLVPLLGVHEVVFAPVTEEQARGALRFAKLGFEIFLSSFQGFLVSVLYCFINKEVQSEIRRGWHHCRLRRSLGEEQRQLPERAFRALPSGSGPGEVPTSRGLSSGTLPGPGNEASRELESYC
The data set is described as follows: [125I]-GIP binding, SPA with WGA beads, 0.1% bacitracin. Particulars: geometric mean, read-out: hGIPR Ki. The essentials:
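Ki values are geometric means (SEM, n independent days), derived from four-parameter nonlinear regression of IC50. Membranes came from hGIPR-expressing CHO cells.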

The target of data set [3] is T3, human GLP-1R (Homo sapiens, UniProt P43220).
T3 construct: expressed in transfected cells; crude membranes
The experiment in a line: [125I]-GLP-1 binding, SPA with WGA beads, 0.1% bacitracin. Particulars: geometric mean, read-out: hGLP1R Ki. The essentials:
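Binding buffer was 25 mM HEPES pH 7.4 with 2.5 mM CaCl2, 1 mM MgCl2, 0.1% (w/v) bacitracin, 0.003% Tween-20 and EDTA-free protease inhibitors. Four-parameter regression gave IC50, converted to Ki (geometric mean, SEM, n independent days).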

The nature of data set [4]: Pharmacokinetics in male cynomolgus monkeys, single subcutaneous administration. Format: in vivo, cynomolgus monkey. Particulars: 50 nmol/kg single SC, mean n = 2; for CL/F / Tmax / half-life: cynomolgus monkey, plasma. On the procedure: The pharmacokinetics of select Examples are evaluated following a single subcutaneous administration of 50 nmol/kg to male cynomolgus monkeys. Blood samples are collected over 504 hours and resulting individual plasma concentrations are used to calculate pharmacokinetic parameters. Peptide plasma (K3 EDTA) concentrations are determined using a qualified LC/MS method that measured the intact mass of the compound. Each peptide and an analog as an internal standard are extracted from 100% cynomolgus monkey plasma using a protein precipitation method. Instruments are combined for LC/MS detection.

T3 sequence (P43220 24-463): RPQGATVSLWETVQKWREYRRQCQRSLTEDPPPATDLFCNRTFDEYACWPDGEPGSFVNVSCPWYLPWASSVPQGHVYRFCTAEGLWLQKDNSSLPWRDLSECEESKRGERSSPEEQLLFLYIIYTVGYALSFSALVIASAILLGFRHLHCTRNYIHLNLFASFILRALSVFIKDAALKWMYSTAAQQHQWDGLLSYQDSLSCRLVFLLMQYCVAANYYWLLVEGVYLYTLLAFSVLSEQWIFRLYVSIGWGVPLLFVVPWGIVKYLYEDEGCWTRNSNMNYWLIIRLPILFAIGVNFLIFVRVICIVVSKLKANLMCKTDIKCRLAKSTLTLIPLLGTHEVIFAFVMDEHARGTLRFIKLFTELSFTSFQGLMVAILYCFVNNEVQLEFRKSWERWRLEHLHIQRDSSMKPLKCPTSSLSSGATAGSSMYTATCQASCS
T1 sequence (P47871 26-477): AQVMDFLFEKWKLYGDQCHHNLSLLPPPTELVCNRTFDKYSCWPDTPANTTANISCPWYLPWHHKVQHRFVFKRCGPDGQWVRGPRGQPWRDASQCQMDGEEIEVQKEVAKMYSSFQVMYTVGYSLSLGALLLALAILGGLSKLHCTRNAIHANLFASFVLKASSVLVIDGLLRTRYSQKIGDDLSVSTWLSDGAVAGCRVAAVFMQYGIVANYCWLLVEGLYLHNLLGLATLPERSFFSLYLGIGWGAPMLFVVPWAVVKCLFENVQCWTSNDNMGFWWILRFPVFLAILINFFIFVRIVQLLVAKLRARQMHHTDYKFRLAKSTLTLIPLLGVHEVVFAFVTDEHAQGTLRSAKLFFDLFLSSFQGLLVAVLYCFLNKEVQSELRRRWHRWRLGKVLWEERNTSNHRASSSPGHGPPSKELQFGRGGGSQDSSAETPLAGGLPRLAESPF

In the case of `CC[C@H](C)[C@H](NC(=O)[C@H](CO)NC(=O)[C@H](Cc1ccc(O)cc1)NC(=O)[C@H](CC(=O)O)NC(=O)[C@H](CO)NC(=O)[C@@H](NC(=O)[C@H](Cc1ccccc1)NC(=O)[C@@H](NC(=O)CNC(=O)[C@H](CCC(=O)O)NC(=O)[C@@H](C)NC(=O)[C@@H](N)Cc1ccc(O)cc1)[C@@H](C)O)[C@@H](C)CC)C(=O)N[C@@H](CC(C)C)C(=O)N[C@@H](CC(C)C)C(=O)N[C@@H](CC(=O)O)C(=O)N[C@@H](CCCCN)C(=O)N[C@@H](CCCCNC(=O)COCCOCCNC(=O)COCCOCCNC(=O)CC[C@H](NC(=O)CCCCCCCCCCCCCCCCCCC(=O)O)C(=O)O)C(=O)N[C@@H](C)C(=O)N[C@@H](CCC(N)=O)C(=O)NC(C)(C)C(=O)N[C@@H](CC(=O)O)C(=O)N[C@@H](Cc1ccccc1)C(=O)N[C@H](C(=O)N[C@@H](CC(N)=O)C(=O)N[C@@H](Cc1c[nH]c2ccccc12)C(=O)N[C@@H](CC(C)C)C(=O)N[C@@H](CC(C)C)C(=O)N[C@@H](C)C(=O)N[C@@H](CCC(N)=O)C(=O)NCC(=O)N1CCC[C@H]1C(=O)N[C@@H](CO)C(=O)N[C@@H](CO)C(=O)NCC(=O)N[C@@H](C)C(=O)N1CCC[C@H]1C(=O)N1CCC[C@H]1C(=O)N1CCC[C@H]1C(=O)N[C@@H](CO)C(N)=O)C(C)C` [Example 1], in data set [1], the Ki was determined as 228 nM. Moreover, the Ki in data set [2] worked out at 0.0667 nM. Also, the Ki in data set [3] was found to be 57.8 nM. Further, in data set [4], the AUCInf/Dose worked out at 786 hr*kg*nmol/L/nmol, the Cmax/Dose is given as 7.20 kg*nmol/L/nmol, the CL/F was 30.5 mL/day/kg and the Tmax was 24 h. Moreover, the half-life in data set [4] was 71.1 h.

Take `CC[C@H](C)[C@H](NC(=O)[C@H](CO)NC(=O)[C@H](Cc1ccc(O)cc1)NC(=O)[C@H](CC(=O)O)NC(=O)[C@H](CO)NC(=O)[C@@H](NC(=O)[C@H](Cc1ccccc1)NC(=O)[C@@H](NC(=O)CNC(=O)[C@H](CCC(=O)O)NC(=O)[C@@H](C)NC(=O)[C@@H](N)Cc1ccc(O)cc1)[C@@H](C)O)[C@@H](C)CC)C(=O)N[C@@H](CC(C)C)C(=O)N[C@@H](CC(C)C)C(=O)N[C@@H](CC(=O)O)C(=O)N[C@@H](CCCCN)C(=O)N[C@@H](CCCCNC(=O)COCCOCCNC(=O)COCCOCCNC(=O)CC[C@H](NC(=O)CCCCCCCCCCCCCCCCC(=O)O)C(=O)O)C(=O)N[C@@H](C)C(=O)N[C@@H](CCC(N)=O)C(=O)NC(C)(C)C(=O)N[C@@H](CC(=O)O)C(=O)N[C@@H](Cc1ccccc1)C(=O)N[C@H](C(=O)N[C@@H](CC(N)=O)C(=O)N[C@@H](Cc1c[nH]c2ccccc12)C(=O)N[C@@H](CC(C)C)C(=O)N[C@@H](CC(C)C)C(=O)N[C@@H](C)C(=O)N[C@@H](CCC(N)=O)C(=O)NCC(=O)N1CCC[C@H]1C(=O)N[C@@H](CO)C(=O)N[C@@H](CO)C(=O)NCC(=O)N[C@@H](C)C(=O)N1CCC[C@H]1C(=O)N1CCC[C@H]1C(=O)N1CCC[C@H]1C(=O)N[C@@H](CO)C(N)=O)C(C)C` [Example 2]: the Ki in data set [1] was 379 nM. For the same compound, the Ki in data set [2] was determined as 0.0373 nM. Also, the Ki in data set [3] was 77.9 nM. Moreover, in data set [4], the AUCInf/Dose is 624 hr*kg*nmol/L/nmol, the Cmax/Dose worked out at 6.92 kg*nmol/L/nmol, the CL/F is 38.6 mL/day/kg and the Tmax is 6 h. The same compound gave a half-life in data set [4] of 51.8 h.

Regarding `CC[C@H](C)[C@H](NC(=O)[C@H](Cc1ccccc1)NC(=O)[C@@H](NC(=O)CNC(=O)[C@H](CCC(=O)O)NC(=O)C(C)(C)NC(=O)[C@@H](N)Cc1ccc(O)cc1)[C@@H](C)O)C(=O)N[C@@H](CO)C(=O)N[C@@H](CC(=O)O)C(=O)N[C@@H](Cc1ccc(O)cc1)C(=O)N[C@@H](CO)C(=O)N[C@H](C(=O)N[C@@](C)(CC(C)C)C(=O)N[C@@H](CC(C)C)C(=O)N[C@@H](CC(=O)O)C(=O)N[C@@H](CCCCN)C(=O)N[C@@H](CCCCNC(=O)COCCOCCNC(=O)COCCOCCNC(=O)CC[C@H](NC(=O)CCCCCCCCCCCCCCCCCCC(=O)O)C(=O)O)C(=O)N[C@@H](Cc1c[nH]cn1)C(=O)N[C@@H](CCC(N)=O)C(=O)NC(C)(C)C(=O)N[C@@H](CC(=O)O)C(=O)N[C@@H](Cc1ccccc1)C(=O)N[C@H](C(=O)N[C@@H](CCC(=O)O)C(=O)N[C@@H](Cc1ccncc1)C(=O)N[C@@H](CC(C)C)C(=O)N[C@@H](CC(C)C)C(=O)N[C@@H](CCC(=O)O)C(=O)N[C@@H](C)C(=O)NCC(=O)N1CCC[C@H]1C(=O)N[C@@H](CO)C(=O)N[C@@H](CO)C(=O)NCC(=O)N[C@@H](C)C(=O)N1CCC[C@H]1C(=O)N1CCC[C@H]1C(=O)N1CCC[C@H]1C(=O)N[C@@H](CO)C(N)=O)C(C)C)[C@@H](C)CC` [Example 3], the Ki in data set [1] was found to be 338 nM. The Ki in data set [2] is 0.0525 nM. Besides, the Ki in data set [3] was 381 nM. For the same compound, in data set [4], the AUCInf/Dose stood at 1764 hr*kg*nmol/L/nmol, the Cmax/Dose is 12.1 kg*nmol/L/nmol, the CL/F was 13.7 mL/day/kg and the Tmax worked out at 60 h. In data set [4], the half-life was 88.8 h.

Regarding `CC[C@H](C)[C@H](NC(=O)[C@H](Cc1ccccc1)NC(=O)[C@@H](NC(=O)CNC(=O)[C@H](CCC(=O)O)NC(=O)C(C)(C)NC(=O)[C@@H](N)Cc1ccc(O)cc1)[C@@H](C)O)C(=O)N[C@@H](CO)C(=O)N[C@@H](CC(=O)O)C(=O)N[C@@H](Cc1ccc(O)cc1)C(=O)N[C@@H](CO)C(=O)N[C@H](C(=O)N[C@@](C)(CC(C)C)C(=O)N[C@@H](CC(C)C)C(=O)N[C@@H](CC(=O)O)C(=O)N[C@@H](CCCN)C(=O)N[C@@H](CCCCNC(=O)COCCOCCNC(=O)COCCOCCNC(=O)CC[C@H](NC(=O)CCCCCCCCCCCCCCCCCCC(=O)O)C(=O)O)C(=O)N[C@@H](Cc1c[nH]cn1)C(=O)N[C@@H](CCC(N)=O)C(=O)NC(C)(C)C(=O)N[C@@H](CC(=O)O)C(=O)N[C@@H](Cc1ccccc1)C(=O)N[C@H](C(=O)N[C@@H](CCC(=O)O)C(=O)N[C@@H](Cc1ccncc1)C(=O)N[C@@H](CC(C)C)C(=O)N[C@@H](CC(C)C)C(=O)N[C@@H](CCC(=O)O)C(=O)N[C@@H](C)C(=O)NCC(=O)N1CCC[C@H]1C(=O)N[C@@H](CO)C(=O)N[C@@H](CO)C(=O)NCC(=O)N[C@@H](C)C(=O)N1CCC[C@H]1C(=O)N1CCC[C@H]1C(=O)N1CCC[C@H]1C(=O)N[C@@H](CO)C(N)=O)C(C)C)[C@@H](C)CC` [Example 4], the Ki in data set [1] came to 431 nM. Besides, the Ki in data set [2] worked out at 0.062 nM. For the same compound, the inhibitory constant (Ki) in data set [3] is 423 nM. Moreover, in data set [4], the AUCInf/Dose is listed as 1387 hr*kg*nmol/L/nmol, the Cmax/Dose is reported as 8.71 kg*nmol/L/nmol, the CL/F was 17.3 mL/day/kg and the Tmax is 6 h. The half-life in data set [4] was 124 h.

For `CC[C@H](C)[C@H](NC(=O)[C@H](CCCCN)NC(=O)[C@H](CC(=O)O)NC(=O)[C@H](CC(C)C)NC(=O)[C@](C)(CC(C)C)NC(=O)[C@@H](NC(=O)[C@H](CO)NC(=O)[C@H](Cc1ccc(O)cc1)NC(=O)[C@H](CC(=O)O)NC(=O)[C@H](CO)NC(=O)[C@@H](NC(=O)[C@H](Cc1ccccc1)NC(=O)[C@@H](NC(=O)CNC(=O)[C@H](CCC(=O)O)NC(=O)C(C)(C)NC(=O)[C@@H](N)Cc1ccc(O)cc1)[C@@H](C)O)[C@@H](C)CC)[C@@H](C)CC)C(=O)N[C@@H](Cc1c[nH]cn1)C(=O)N[C@@H](CCC(N)=O)C(=O)NC(C)(C)C(=O)N[C@@H](CC(=O)O)C(=O)N[C@@H](Cc1ccccc1)C(=O)N[C@H](C(=O)N[C@@H](CCC(=O)O)C(=O)N[C@@H](Cc1ccc(O)cc1)C(=O)N[C@@H](CCCCNC(=O)COCCOCCNC(=O)COCCOCCNC(=O)CC[C@H](NC(=O)CCCCCCCCCCCCCCCCCCC(=O)O)C(=O)O)C(=O)N[C@@H](CC(C)C)C(=O)N[C@@H](CCC(=O)O)C(=O)NCC(=O)NCC(=O)N1CCC[C@H]1C(=O)N[C@@H](CO)C(=O)N[C@@H](CO)C(=O)NCC(=O)N[C@@H](C)C(=O)N1CCC[C@H]1C(=O)N1CCC[C@H]1C(=O)N1CCC[C@H]1C(=O)N[C@@H](CO)C(N)=O)C(C)C` [Example 5], the Ki in data set [1] is 619 nM. In addition, the Ki in data set [2] was 0.0771 nM. Also, in data set [3], the Ki was over 913 nM. In addition, in data set [4], the AUCInf/Dose came out at 2262 hr*kg*nmol/L/nmol, the Cmax/Dose is given as 12.0 kg*nmol/L/nmol, the CL/F is 10.6 mL/day/kg and the Tmax is 120 h. This compound also had a half-life in data set [4] of 128 h.
